Data taken from ChEMBL document CHEMBL1201862, “PubChem BioAssay data set” (2004).
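1) Cells in 96-well plates. 2) Compound, 48 h, 5 concentrations. 3) Linear interpolation between surrounding doses. 4) Unreached endpoint = highest concentration. Here, GI50 denotes the concentration required for 50% inhibition of growth.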 Activity calls are given as the source filed them. No stated cut-off is given here; in the data, active = GI50 up to about 1.1 µM and inactive = higher. Where a SMILES comes first, the peptide text is derived from it. [ ]: non-standard residue; d: D form. The star is where a group is joined. ξ: configuration not given here. ξPhe(4-NO2) = NC(Cc1ccc([N+](=O)[O-])cc1)C(=O)O; Boc = CC(C)(C)OC(=O)*; OBn = c1ccc(CO*)cc1

Tests used:
Experiment in all cases: NCI-60 cell line screen, 48 h
SF-268 = tested on: SF-268
Malme-3M = tested on: Malme-3M
OVCAR-3 = tested on: OVCAR-3
NCI-H23 = tested on: NCI-H23
SR = tested on: SR
OVCAR-8 = tested on: OVCAR-8
NCI-H460 = tested on: NCI-H460
SF-539 = tested on: SF-539
HCT-116 = tested on: HCT-116
ACHN = tested on: ACHN
IGROV-1 = tested on: IGROV-1
NCI/ADR-RES = tested on: NCI/ADR-RES
K562 = tested on: K562
CAKI-1 = tested on: CAKI-1
HOP-92 = tested on: HOP-92
CCRF-CEM = tested on: CCRF-CEM
KM12 = tested on: KM12
SN12C = tested on: SN12C
SK-MEL-2 = tested on: SK-MEL-2
RPMI-8226 = tested on: RPMI-8226

Measured: GI50

CCn1c(=O)c2c3ccc(OC(C)=O)cc3[nH]c2c2ccc(OC(C)=O)cc21
inactive: SF-268 35.8 µM | Malme-3M 32.2 µM | OVCAR-3 32 µM | NCI-H23 40.3 µM | SR 36.6 µM | OVCAR-8 31.3 µM | NCI-H460 29 µM | SF-539 39 µM | HCT-116 15.5 µM | ACHN 31.9 µM | IGROV-1 53.1 µM | NCI/ADR-RES > 100 µM | K562 24 µM | CAKI-1 61.5 µM | HOP-92 43.5 µM | CCRF-CEM 15.2 µM | KM12 34.7 µM | SN12C 32.7 µM

NS(=O)(=O)c1nnc(NC(=O)CCC(=O)O)s1
inactive: SF-268 > 100 µM | Malme-3M > 100 µM | OVCAR-3 > 100 µM | NCI-H23 > 100 µM | SR > 100 µM | OVCAR-8 > 100 µM | NCI-H460 > 100 µM | SF-539 > 100 µM | HCT-116 > 100 µM | ACHN > 100 µM | SK-MEL-2 > 100 µM | NCI/ADR-RES > 100 µM | K562 > 100 µM | CAKI-1 > 100 µM | RPMI-8226 > 100 µM | HOP-92 > 100 µM | KM12 > 100 µM | SN12C > 100 µM

C[C@@]1(O)C[C@@H](N2C(=O)O[C@@H](c3ccccc3)[C@H]2c2ccccc2)[C@@H]1COCc1ccccc1
inactive: SF-268 18.2 µM | Malme-3M 20.6 µM | OVCAR-3 17.3 µM | NCI-H23 16.1 µM | SR 15 µM | OVCAR-8 17.8 µM | NCI-H460 17.7 µM | SF-539 20.8 µM | HCT-116 19.5 µM | ACHN 26.2 µM | SK-MEL-2 12.7 µM | IGROV-1 25 µM | NCI/ADR-RES 15.2 µM | K562 19.4 µM | CAKI-1 22 µM | RPMI-8226 7.74 µM | HOP-92 19 µM | KM12 19.6 µM | SN12C 17.4 µM

CSc1cc(Cl)c(C)cc1S(=O)(=O)NC(=O)NNc1ccc(Cl)cc1
inactive: SF-268 > 100 µM | Malme-3M > 100 µM | OVCAR-3 > 100 µM | SR 70 µM | OVCAR-8 > 100 µM | NCI-H460 > 100 µM | SF-539 40.1 µM | HCT-116 > 100 µM | ACHN 47.3 µM | SK-MEL-2 > 100 µM | IGROV-1 > 100 µM | NCI/ADR-RES > 100 µM | K562 > 100 µM | CAKI-1 94.6 µM | KM12 > 100 µM | SN12C > 100 µM

Cc1cc(N(CCC#N)CCC#N)ccc1C(/N=N\c1ccc(C(=O)O)cc1)=N\NC(=O)c1cc(Cl)ccc1O
inactive: SF-268 19.2 µM | Malme-3M 56.6 µM | OVCAR-3 56.2 µM | NCI-H23 39.2 µM | SR 62.8 µM | OVCAR-8 25.3 µM | NCI-H460 36 µM | SF-539 > 10 µM | HCT-116 36.1 µM | ACHN 31.7 µM | SK-MEL-2 83.6 µM | IGROV-1 24.7 µM | NCI/ADR-RES 37.6 µM | K562 > 100 µM | CAKI-1 46.6 µM | RPMI-8226 > 100 µM | CCRF-CEM 59.8 µM | KM12 28.8 µM | SN12C > 100 µM

CCOC(=O)NN(C(=O)OCC)C(C(=O)C1=CCCCC1)N(NC(=O)OCC)C(=O)OCC
inactive: SF-268 > 100 µM | Malme-3M > 100 µM | OVCAR-3 > 100 µM | NCI-H23 > 100 µM | SR > 100 µM | OVCAR-8 > 100 µM | NCI-H460 > 100 µM | SF-539 9.57 µM | HCT-116 > 100 µM | ACHN > 100 µM | SK-MEL-2 > 100 µM | IGROV-1 > 100 µM | NCI/ADR-RES > 100 µM | K562 > 100 µM | CAKI-1 > 100 µM | RPMI-8226 > 100 µM | HOP-92 > 100 µM | KM12 > 100 µM | SN12C > 100 µM

COc1ccc(-c2nc3cc(F)ccc3s2)cc1O
inactive: SF-268 28 µM | Malme-3M 35.1 µM | OVCAR-3 29.7 µM | NCI-H23 29.3 µM | SR 19.1 µM | OVCAR-8 26.5 µM | NCI-H460 21.3 µM | SF-539 38.5 µM | HCT-116 27.4 µM | ACHN 28.7 µM | SK-MEL-2 27.9 µM | IGROV-1 3.81 µM | NCI/ADR-RES 46.3 µM | K562 73.1 µM | CAKI-1 23.3 µM | RPMI-8226 17.6 µM | CCRF-CEM 4.53 µM | KM12 12.2 µM | SN12C 84.3 µM

S=C1/C(=N/c2ccccc2)N(c2ccccc2)/C(=N\c2cccc[n+]2Cc2ccccc2)N1c1ccccc1
inactive: SF-268 20.6 µM | Malme-3M 14.4 µM | OVCAR-3 18.5 µM | NCI-H23 19 µM | SR 15.3 µM | OVCAR-8 17.9 µM | NCI-H460 18.7 µM | SF-539 16.3 µM | HCT-116 11.1 µM | ACHN 17 µM | SK-MEL-2 24.3 µM | IGROV-1 22.5 µM | NCI/ADR-RES 39.9 µM | K562 4.25 µM | CAKI-1 18.9 µM | RPMI-8226 17.4 µM | HOP-92 16.6 µM | KM12 16.6 µM | SN12C 21 µM

CC(C)(C)OC(=O)NC(Cc1ccc([N+](=O)[O-])cc1)C(=O)NCC(=O)OCc1ccccc1 (configuration not stated) (Boc-[ξPhe(4-NO2)]-Gly-OBn)
inactive: SF-268 19.5 µM | Malme-3M 23.8 µM | OVCAR-3 19 µM | NCI-H23 20.2 µM | SR 31.6 µM | OVCAR-8 22.2 µM | NCI-H460 21.9 µM | HCT-116 26.5 µM | ACHN 23 µM | IGROV-1 > 100 µM | NCI/ADR-RES 42 µM | K562 15 µM | CAKI-1 13.1 µM | RPMI-8226 21 µM | HOP-92 34 µM | CCRF-CEM 13.9 µM | KM12 31.4 µM | SN12C 20.7 µM

O=C(Nc1ccccc1F)c1cc2ccc(O)cc2o/c1=N\c1cccc(C(F)(F)F)c1
inactive: SF-268 2.82 µM | Malme-3M 2.69 µM | OVCAR-3 3.77 µM | NCI-H23 1.76 µM | SR 3.31 µM | OVCAR-8 2.18 µM | NCI-H460 3.22 µM | SF-539 3.9 µM | HCT-116 2.85 µM | ACHN 3.57 µM | SK-MEL-2 4.36 µM | IGROV-1 2.08 µM | NCI/ADR-RES 3.22 µM | K562 2.85 µM | CAKI-1 3.79 µM | RPMI-8226 2.05 µM | CCRF-CEM 1.92 µM | KM12 3.71 µM

C=C(Cl)C(Cl)(CBr)CCCC(C)C (configuration not stated)
inactive: SF-268 15.1 µM | Malme-3M > 100 µM | OVCAR-3 6.89 µM | NCI-H23 > 100 µM | SR > 75.7 µM | OVCAR-8 20.7 µM | NCI-H460 15.7 µM | SF-539 9.98 µM | HCT-116 6.47 µM | ACHN 13.3 µM | IGROV-1 > 100 µM | NCI/ADR-RES 27 µM | K562 26.5 µM | CAKI-1 5.81 µM | RPMI-8226 2.92 µM | HOP-92 17.2 µM | CCRF-CEM > 57.5 µM | KM12 11.8 µM | SN12C > 100 µM
